In series [1] the target is T1, leucine aminopeptidase (LAP) (Mus musculus, UniProt Q9CPY7).
T1 sequence (Q9CPY7 1-519): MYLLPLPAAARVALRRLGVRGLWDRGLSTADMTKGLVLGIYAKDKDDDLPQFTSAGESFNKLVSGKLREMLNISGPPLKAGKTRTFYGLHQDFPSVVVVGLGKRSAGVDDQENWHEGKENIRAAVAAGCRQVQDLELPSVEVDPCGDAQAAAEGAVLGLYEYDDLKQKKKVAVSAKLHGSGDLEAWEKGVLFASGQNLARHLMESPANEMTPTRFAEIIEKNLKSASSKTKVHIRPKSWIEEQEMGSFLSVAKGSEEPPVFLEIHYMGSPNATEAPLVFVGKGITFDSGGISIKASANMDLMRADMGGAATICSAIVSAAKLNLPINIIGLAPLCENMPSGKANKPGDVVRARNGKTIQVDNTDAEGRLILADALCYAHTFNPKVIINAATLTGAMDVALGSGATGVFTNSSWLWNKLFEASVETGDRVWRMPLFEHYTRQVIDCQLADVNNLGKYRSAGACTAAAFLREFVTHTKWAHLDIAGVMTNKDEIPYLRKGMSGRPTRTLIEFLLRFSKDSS
The series can be described thus: Inhibition of HxBP—Rh labeling of leucine aminopeptidase in mouse kidney soluble proteome.
Procedure: (§1) For labeling and detection of MPs using HxBP—Rh, the following technique can be used. […] Kidney and cancer cell proteomes, prepared as known to those having ordinary skill in the art, can be adjusted to 1 mg/ml in 50 mM Tris-HCl buffer (pH 8.0) prior to labeling. […] Labeled samples can be separated by SDS-PAGE, and visualized in-gel with a Hitachi FMBio IIe flatbed scanner (Mirabio). Integrated band intensities can be calculated from several independent labeling reactions, and averaged to provide the level of each enzyme activity in each sample.
(§2) For measuring the IC50 values for MP inhibitors using HxBP—Rh, the following technique can be used. IC50 values for neprilysin, dipeptidylpeptidase III (DPPIII), and leucine aminopeptidase (LAP) can be determined using Prism Software (Graph Pad) from dose-response curves of three trials at concentrations of GM6001 ranging from 0.001-20 μM and 50 nM HxBP—Rh probe. Neprilysin, DPPIII, and LAP assays can be conducted using MUM-2B membrane, MCF7 soluble, and mouse kidney soluble proteomes, respectively.
(§3) Right panels show the concentration-dependence of inhibition of HxBP—Rh labeling of by GM6001 (each data point corresponds to the average of three independent trials and is presented as a percentage of control reactions conducted without GM6001).

Series [2] deals with T2, dipeptidylpeptidase III (DPPIII) (Homo sapiens, UniProt Q9NY33).
T2 sequence (Q9NY33 1-737): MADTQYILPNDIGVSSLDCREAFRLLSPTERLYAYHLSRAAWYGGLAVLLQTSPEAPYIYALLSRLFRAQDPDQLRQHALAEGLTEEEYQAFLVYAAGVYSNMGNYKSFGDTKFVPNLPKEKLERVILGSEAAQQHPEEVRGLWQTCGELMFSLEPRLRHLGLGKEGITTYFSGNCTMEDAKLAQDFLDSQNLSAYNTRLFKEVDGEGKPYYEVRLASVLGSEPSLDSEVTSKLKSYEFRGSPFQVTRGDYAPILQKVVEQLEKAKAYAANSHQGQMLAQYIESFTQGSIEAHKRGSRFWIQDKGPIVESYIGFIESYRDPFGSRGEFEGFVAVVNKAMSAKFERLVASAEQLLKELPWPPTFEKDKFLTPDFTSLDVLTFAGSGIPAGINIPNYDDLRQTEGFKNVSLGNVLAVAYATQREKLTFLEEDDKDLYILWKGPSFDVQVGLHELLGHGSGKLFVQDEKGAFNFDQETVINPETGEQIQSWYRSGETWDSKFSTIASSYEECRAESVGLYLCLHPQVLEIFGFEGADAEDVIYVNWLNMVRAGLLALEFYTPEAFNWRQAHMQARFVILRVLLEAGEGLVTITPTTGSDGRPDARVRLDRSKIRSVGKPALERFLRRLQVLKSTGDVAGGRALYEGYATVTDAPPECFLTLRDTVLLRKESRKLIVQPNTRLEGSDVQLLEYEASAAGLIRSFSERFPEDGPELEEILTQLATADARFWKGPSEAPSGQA
In words: Inhibition of HxBP—Rh labeling of dipeptidylpeptidase III in MCF7 soluble proteome.
Procedure: For labeling and detection of MPs using HxBP—Rh, the following technique can be used. […] Kidney and cancer cell proteomes, prepared as known to those having ordinary skill in the art, can be adjusted to 1 mg/ml in 50 mM Tris-HCl buffer (pH 8.0) prior to labeling. A portion of each cancer cell line proteome sample can be treated with PNGaseF (New England Biolabs) to provide deglycosylated proteomes, as known to those having ordinary skill in the art. Labeled samples can be separated by SDS-PAGE, and visualized in-gel with a Hitachi FMBio IIe flatbed scanner (Mirabio). Integrated band intensities can be calculated from several independent labeling reactions, and averaged to provide the level of each enzyme activity in each sample.
as §2
Shown is a representative HxBP—Rh labeling (100 nM) profile of the soluble proteome from MCF-7 cells. […]

In the next series the target is T3, MMP-2 (Homo sapiens, UniProt P08253).
T3 sequence (P08253 110-660): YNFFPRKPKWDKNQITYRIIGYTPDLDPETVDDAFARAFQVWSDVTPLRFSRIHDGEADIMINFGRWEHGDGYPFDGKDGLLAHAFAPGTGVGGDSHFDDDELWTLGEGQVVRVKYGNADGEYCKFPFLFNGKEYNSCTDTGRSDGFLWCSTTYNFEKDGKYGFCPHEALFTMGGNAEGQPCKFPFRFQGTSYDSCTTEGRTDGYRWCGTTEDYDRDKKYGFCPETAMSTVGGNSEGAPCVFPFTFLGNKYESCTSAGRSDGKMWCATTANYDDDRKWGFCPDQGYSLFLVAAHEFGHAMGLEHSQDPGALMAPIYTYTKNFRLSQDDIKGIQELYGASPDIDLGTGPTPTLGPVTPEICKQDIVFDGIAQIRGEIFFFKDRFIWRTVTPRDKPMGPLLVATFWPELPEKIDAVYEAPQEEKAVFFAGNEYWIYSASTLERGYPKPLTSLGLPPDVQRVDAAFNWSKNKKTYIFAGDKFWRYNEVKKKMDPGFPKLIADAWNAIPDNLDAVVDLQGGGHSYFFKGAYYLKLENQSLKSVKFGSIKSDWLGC
In words: Activity-based labeling of purified MMP-2 added to mouse kidney proteome. The following applies: GM6001 5 μM or TIMP-1 200 ng, HxBP—Rh 100 nM.

The target of the next series is neprilysin (Homo sapiens, UniProt P08473). The series can be described thus: Inhibition of HxBP—Rh labeling of neprilysin in MUM-2B membrane proteome (competitive activity-based profiling, in-gel fluorescence). The note with it: 50 nM HxBP—Rh probe, three trials, 95% confidence limits 12-23 nM. It is filed as binding.
Chain of neprilysin (P08473 whole entry): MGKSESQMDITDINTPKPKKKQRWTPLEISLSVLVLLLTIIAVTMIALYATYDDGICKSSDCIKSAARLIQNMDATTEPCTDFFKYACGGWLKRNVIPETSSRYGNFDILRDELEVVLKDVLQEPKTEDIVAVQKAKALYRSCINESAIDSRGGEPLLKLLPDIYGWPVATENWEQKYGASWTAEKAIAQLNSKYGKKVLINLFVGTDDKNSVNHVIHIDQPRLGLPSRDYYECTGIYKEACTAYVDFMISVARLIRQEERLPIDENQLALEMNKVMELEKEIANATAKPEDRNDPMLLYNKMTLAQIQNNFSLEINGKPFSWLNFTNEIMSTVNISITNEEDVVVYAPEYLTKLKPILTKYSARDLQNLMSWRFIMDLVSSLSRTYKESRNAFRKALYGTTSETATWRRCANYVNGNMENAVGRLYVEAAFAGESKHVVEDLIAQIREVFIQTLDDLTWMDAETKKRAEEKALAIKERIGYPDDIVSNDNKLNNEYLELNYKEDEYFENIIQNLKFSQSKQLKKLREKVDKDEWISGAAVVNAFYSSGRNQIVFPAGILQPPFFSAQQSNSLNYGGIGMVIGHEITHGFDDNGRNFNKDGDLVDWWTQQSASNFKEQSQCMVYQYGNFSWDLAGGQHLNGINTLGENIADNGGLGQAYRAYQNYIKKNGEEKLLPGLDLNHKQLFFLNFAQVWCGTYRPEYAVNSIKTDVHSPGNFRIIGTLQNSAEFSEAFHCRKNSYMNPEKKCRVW

Procedure for MMP-2: For labeling and detection of MPs using HxBP—Rh, the following technique can be used. Purified MMP-2 can be diluted in buffer 1 (30 ng of enzyme) and mixed with 100 nM HxBP—Rh in the presence or absence of 5 μM GM6001 or TIMP-1 (80 ng). These mixtures can be pre-incubated on ice for 15 min prior to irradiation at 365 nm for 1 hour (on ice) followed by quenching with one volume of standard 2× SDS/PAGE loading buffer (reducing). Kidney and cancer cell proteomes, prepared as known to those having ordinary skill in the art, can be adjusted to 1 mg/ml in 50 mM Tris-HCl buffer (pH 8.0) prior to labeling. […] Labeled samples can be separated by SDS-PAGE, and visualized in-gel with a Hitachi FMBio IIe flatbed scanner (Mirabio). Integrated band intensities can be calculated from several independent labeling reactions, and averaged to provide the level of each enzyme activity in each sample.
With the reference to FIG. 3A, purified MMP-2 (100 ng) or pro-MMP-2 (100 ng) were added to a mouse kidney proteome (15 μL, 1 μg protein/μL) and treated with HxBP—Rh (100 nM) for 15 min prior to photocrosslinking and analysis by SDS-PAGE and in-gel fluorescence scanning.
FIG. 3B illustrates HxBP—Rh labeling of a serial dilution of purified MMP-2 added to a mouse kidney proteome.
Procedure for neprilysin: as §1, §2, §3

As for `CNC(=O)[C@H](Cc1c[nH]c2ccccc12)NC(=O)[C@@H](CC(=O)NO)CC(C)C` [GM6001], the IC50 (in general, the point on the concentration scale where inhibition reaches its midpoint) in series [1] was determined as 111 nM; in series [2] it was 76 nM; on neprilysin, 17 nM. For the same molecule, the “Effect on HxBP—Rh labeling of ~80 kDa protein (DPPIII)” value in series [2] (GM6001 5 μM, HxBP—Rh 100 nM, soluble proteome from MCF-7 cells) is given as “blocked”. Further, the “Effect on HxBP—Rh labeling of MMP-2 in whole proteome” value on MMP-2 is on record as “blocked”.

“TIMP-1: inhibitor of MMP-2 used to block probe labeling”: in the series with MMP-2, the “Effect on HxBP—Rh labeling of MMP-2 in whole proteome” value is listed as “blocked”.

Values taken from patent US7348437B2, “Proteomic analysis” (The Scripps Research Institute, priority 2004, dated 2008).
